The values that follow come from patent publication US20070043049A1, “Substituted heterocyclic diarylamine analogues” (Neurogen Corporation, priority 2003, published 2007).

The structures appear in SMILES notation.

T1 sequence (Q8NER1 whole entry): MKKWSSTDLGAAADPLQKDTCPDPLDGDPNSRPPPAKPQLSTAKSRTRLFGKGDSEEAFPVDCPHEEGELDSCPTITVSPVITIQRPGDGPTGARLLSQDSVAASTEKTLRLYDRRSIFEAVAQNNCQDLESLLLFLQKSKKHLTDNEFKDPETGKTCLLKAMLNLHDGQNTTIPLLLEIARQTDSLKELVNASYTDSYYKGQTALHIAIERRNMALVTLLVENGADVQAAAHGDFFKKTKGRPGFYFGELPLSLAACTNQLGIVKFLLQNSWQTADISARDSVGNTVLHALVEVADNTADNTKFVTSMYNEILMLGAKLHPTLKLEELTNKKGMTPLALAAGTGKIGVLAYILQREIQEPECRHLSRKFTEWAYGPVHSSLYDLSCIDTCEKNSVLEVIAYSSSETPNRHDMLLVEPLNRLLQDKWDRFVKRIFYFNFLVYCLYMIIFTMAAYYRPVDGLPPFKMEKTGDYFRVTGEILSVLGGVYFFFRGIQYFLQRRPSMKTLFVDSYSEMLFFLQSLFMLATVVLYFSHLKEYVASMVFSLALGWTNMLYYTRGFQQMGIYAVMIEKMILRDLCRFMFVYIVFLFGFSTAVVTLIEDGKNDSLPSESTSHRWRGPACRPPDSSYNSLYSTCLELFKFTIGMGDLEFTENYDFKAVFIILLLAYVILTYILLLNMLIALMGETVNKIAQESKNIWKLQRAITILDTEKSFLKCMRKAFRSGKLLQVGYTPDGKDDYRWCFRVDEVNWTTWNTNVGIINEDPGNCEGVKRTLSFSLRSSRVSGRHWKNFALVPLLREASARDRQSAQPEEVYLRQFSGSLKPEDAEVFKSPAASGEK

This test has as its target T1, human capsaicin receptor (Homo sapiens, UniProt Q8NER1).
T1 construct: pBK-CMV expression construct encoding the full length human capsaicin receptor; expressed in transfected cells
The test is described as follows: Calcium mobilization assay, determination of antagonist activity (Example 6). Format: cell-based. The note with it: 50% decrease in fluorescence response of cells expressing human capsaicin receptor exposed to capsaicin. An outline of the steps:
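HEK293 cells stably expressing full-length human capsaicin receptor, Fluo-3 AM loaded, preincubated with compound 0.5–6 h at room temperature in KRH buffer pH 7.4. Challenged with capsaicin at its EC50; FLIPR fluorescence read. IC50 is concentration halving the capsaicin-induced calcium response.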
Background: Calcium assays in cells follow changes in intracellular calcium, usually with a dye or a luminescent sensor.
As a reminder, the IC50 is the concentration needed to halve the response being measured. As to `C[C@@H]1CN(c2ncccc2Cl)CCN1c1nc(Nc2ccc(C(C)(C)C)cc2)nc(OCc2ccccc2C(F)(F)F)n1` [Compound 5, (4-tert-Butyl-phenyl)-[4-[4-(3-chloro-pyridin-2-yl)-2-methyl-piperazin-1-yl]-6-(2-trifluoromethyl-benzyloxy)-[1,3,5]triazin-2-yl]-amine (R)], the IC50 was at most 1000 nM.
For the molecule `C[C@@H]1CN(c2ncccc2C(F)(F)F)CCN1c1nc(Nc2ccc(C(F)(F)F)cc2)nc(OCc2ccccc2C(F)(F)F)n1` [Compound 9], the IC50 is at most 1000 nM.
For `CCN(CC)c1nc(Nc2ccc(F)c(F)c2)nc(N2CCN(c3ncccc3C(F)(F)F)C[C@H]2C)n1` [Compound 99, N-(3,4-Difluoro-phenyl)-N′,N′-diethyl-6-[2-methyl-4-(3-trifluoromethyl-pyridin-2-yl)-piperazin-1-yl]-[1,3,5]triazine-2,4-diamine (R)], the IC50 was at most 1000 nM.
For `CC(C)CCNc1nc(Nc2ccc(C(F)(F)F)cc2)nc(N2CCN(c3ncccc3Cl)C[C@H]2C)n1` [Compound 39, 6-[4-(3-Chloro-pyridin-2-yl)-2-methyl-piperazin-1-yl]-N-(3-methyl-butyl)-N′-(4-trifluoromethyl-phenyl)-[1,3,5]triazine-2,4-diamine (R)] the value was at most 1000 nM.
In the case of `CC1CCCN1c1nc(Nc2cccc(F)c2)nc(N2CCN(c3ncccc3Cl)CC2)n1` (stereo not drawn) [Compound 77, [4-[4-(3-Chloro-pyridin-2-yl)-piperazin-1-yl]-6-(2-methyl-pyrrolidin-1-yl)-[1,3,5]triazin-2-yl]-(3-fluoro-phenyl)-amine], the IC50 was at most 1000 nM.
Under `COc1ccc(-c2nc(Nc3ccc(C(F)(F)F)cc3)nc(N3CCN(c4ncccc4Cl)C[C@H]3C)n2)c(OC)c1` [Compound 116, [4-[4-(3-Chloro-pyridin-2-yl)-2-methyl-piperazin-1-yl]-6-(2,4-dimethoxy-phenyl)-[1,3,5]triazin-2-yl]-(4-trifluoromethyl-phenyl)-amine] stands at most 1000 nM.
Under `CCN(CC)c1nc(Nc2ccc(F)cc2)nc(N2CCN(c3ncccc3Cl)CC2)n1` [Compound 90, 6-[4-(3-Chloro-pyridin-2-yl)-piperazin-1-yl]-N,N-diethyl-N′-(4-fluoro-phenyl)-[1,3,5]triazine-2,4-diamine] stands at most 1000 nM; under `Fc1ccc(Nc2nc(N3CCOCC3)nc(N3CCN(c4ncccc4Cl)CC3)n2)cc1` [Compound 61, {4-[4-(3-Chloro-pyridin-2-yl)-piperazin-1-yl]-6-morpholin-4-yl-[1,3,5]triazin-2-yl}-(4-fluoro-phenyl)-amine], at most 1000 nM.
As for `C[C@H]1CN(c2ncccc2C(F)(F)F)CCN1c1nc(Cl)nc(Nc2ccc(C(F)(F)F)cc2)n1` [Compound 13, {4-Chloro-6-[2-methyl-4-(3-trifluoromethyl-pyridin-2-yl)-piperazin-1-yl]-[1,3,5]triazin-2-yl}-(4-trifluoromethyl-phenyl)-amine (S)], the IC50 was at most 1000 nM.
Under `Fc1ccc(Nc2nc(N3CCOCC3)cc(N3CCN(c4ncccc4C(F)(F)F)CC3)n2)cc1` [Compound 83, (4-Fluoro-phenyl)-{4-morpholin-4-yl-6-[4-(3-trifluoromethyl-pyridin-2-yl)-piperazin-1-yl]-pyrimidin-2-yl}-amine] stands at most 1000 nM; under `CN(C)c1nc(Nc2ccc(C(F)(F)F)cc2)nc(N2CCN(c3ccccn3)CC2)n1` [Compound 43, N,N-Dimethyl-6-(4-pyridin-2-yl-piperazin-1-yl)-N′-(4-trifluoromethyl-phenyl)-[1,3,5]triazine-2,4-diamine], at most 1000 nM.
On to `CCN(CC)c1nc(Nc2cccc(Cl)c2)nc(N2CCN(c3ncccc3Cl)CC2)n1` [Compound 92, N-(3-Chloro-phenyl)-6-[4-(3-chloro-pyridin-2-yl)-piperazin-1-yl]-N′,N′-diethyl-[1,3,5]triazine-2,4-diamine], for which the IC50 is at most 1000 nM.
For `Cc1ccccc1Nc1nc(N2CCOCC2)cc(N2CCN(c3ncccc3C(F)(F)F)CC2)n1` [Compound 85, {4-Morpholin-4-yl-6-[4-(3-trifluoromethyl-pyridin-2-yl)-piperazin-1-yl]pyrimidin-2-yl}-o-tolyl-amine] the value was at most 1000 nM; for `C=CCN(CC=C)c1nc(Nc2ccc(C(F)(F)F)cc2)nc(N2CCN(c3ncccc3Cl)C[C@H]2C)n1` [Compound 32, N,N-Diallyl-6-[4-(3-chloro-pyridin-2-yl)-2-methyl-piperazin-1-yl]-N′-(4-trifluoromethyl-phenyl)-[1,3,5]triazine-2,4-diamine (R)], at most 1000 nM; for `COCc1nc(Nc2ccc(F)c(F)c2)cc(N2CCN(c3ncccc3C(F)(F)F)CC2)n1` [Compound 109, (3,4-Difluoro-phenyl)-{2-methoxymethyl-6-[4-(3-trifluoromethyl-pyridin-2-yl)-piperazin-1-yl]-pyrimidin-4-yl}-amine], at most 1000 nM.
Under `CCCCN(C)c1nc(Nc2ccc(C(F)(F)F)cc2)nc(N2CCN(c3ncccc3Cl)C[C@H]2C)n1` [Compound 31, N-Butyl-6-[4-(3-chloro-pyridin-2-yl)-2-methyl-piperazin-1-yl]-N-methyl-N′-(4-trifluoromethyl-phenyl)-[1,3,5]triazine-2,4-diamine (R)] stands at most 1000 nM; under `CC(C)CCNc1nc(Nc2ccc(C(F)(F)F)cc2)nc(N2CCN(c3ncccc3C(F)(F)F)CC2)n1` [Compound 21, N-(3-Methyl-butyl)-N′-(4-trifluoromethyl-phenyl)-6-[4-(3-trifluoromethyl-pyridin-2-yl)-piperazin-1-yl]-[1,3,5]triazine-2,4-diamine], at most 1000 nM.
For `FC(F)(F)c1cccnc1N1CCN(c2nc(Nc3ccccc3)cc(N3CCCCC3)n2)CC1` [Compound 57, Phenyl-{6-piperidin-1-yl-2-[4-(3-trifluoromethyl-pyridin-2-yl)-piperazin-1-yl]-pyrimidin-4-yl}-amine] the value was at most 1000 nM; for `CN(C)c1nc(Nc2ccc(C(F)(F)F)cc2)nc(N2CCN(c3ncccc3C(F)(F)F)CC2)n1` [Compound 20, N,N-Dimethyl-N′-(4-trifluoromethyl-phenyl)-6-[4-(3-trifluoromethyl-pyridin-2-yl)-piperazin-1-yl]-[1,3,5]triazine-2,4-diamine], at most 1000 nM.
For the molecule `C[C@@H]1CN(c2ncccc2F)CCN1c1nc(Nc2ccc(C(C)(C)C)cc2)nc(OCc2ccccc2C(F)(F)F)n1` [Compound 7, (4-tert-Butyl-phenyl)-[4-[4-(3-fluoro-pyridin-2-yl)-2-methyl-piperazin-1-yl]-6-(2-trifluoromethyl-benzyloxy)-[1,3,5]triazin-2-yl]-amine (R)], the IC50 is at most 1000 nM.
Under `C[C@@H]1CN(c2ncccc2Cl)CCN1c1nc(NCCCc2ccccc2)nc(Nc2ccc(C(F)(F)F)cc2)n1` [Compound 41, 6-[4-(3-Chloro-pyridin-2-yl)-2-methyl-piperazin-1-yl]-N-(3-phenyl-propyl)-N′-(4-trifluoromethyl-phenyl)-[1,3,5]triazine-2,4-diamine (R)] stands at most 1000 nM.
For `CCCN(C)c1nc(Nc2ccc(C(F)(F)F)cc2)nc(N2CCN(c3ncccc3Cl)C[C@H]2C)n1` [Compound 30, 6-[4-(3-Chloro-pyridin-2-yl)-2-methyl-piperazin-1-yl]-N-methyl-N-propyl-N′-(4-trifluoromethyl-phenyl)-[1,3,5]triazine-2,4-diamine (R)] the value was at most 1000 nM.
Under `COc1cccc(Nc2nc(N3CCOCC3)cc(N3CCN(c4ncccc4C(F)(F)F)CC3)n2)c1` [Compound 88, (3-Methoxy-phenyl)-{4-morpholin-4-yl-6-[4-(3-trifluoromethyl-pyridin-2-yl)-piperazin-1-yl]-pyrimidin-2-yl}-amine] stands at most 1000 nM; under `CC(C)N(C)c1nc(Nc2ccc(C(F)(F)F)cc2)nc(N2CCN(c3ncccc3Cl)CC2)n1` [Compound 49, 6-[4-(3-Chloro-pyridin-2-yl)-piperazin-1-yl]-N-isopropyl-N-methyl-N′-(4-trifluoromethyl-phenyl)-[1,3,5]triazine-2,4-diamine], at most 1000 nM; under `CCN(c1nc(Nc2cccc(F)c2)nc(N2CCN(c3ncccc3Cl)CC2)n1)C(C)C` [Compound 80, 6-[4-(3-Chloro-pyridin-2-yl)-piperazin-1-yl]-N-ethyl-N′-(3-fluoro-phenyl)-N-isopropyl-[1,3,5]triazine-2,4-diamine], at most 1000 nM.
In the case of `FC(F)(F)c1cccnc1N1CCN(c2nc(Nc3ccc(Cl)cc3)nc(N3CCOCC3)n2)CC1` [Compound 63, (4-Chloro-phenyl)-{4-morpholin-4-yl-6-[4-(3-trifluoromethyl-pyridin-2-yl)-piperazin-1-yl]-[1,3,5]triazin-2-yl}-amine], the IC50 was at most 1000 nM.
For the molecule `C[C@@H]1CN(Cc2nc(Nc3ccc(F)c(F)c3)cc(N3CCN(c4ncccc4C(F)(F)F)CC3)n2)C[C@H](C)O1` [Compound 113, (3,4-Difluoro-phenyl)-{2-(2,6-dimethyl-morpholin-4-ylmethyl)-6-[4-(3-trifluoromethyl-pyridin-2-yl)-piperazin-1-yl]-pyrimidin-4-yl}-amine], the IC50 is at most 1000 nM.
Under `CC(C)CNc1nc(Nc2ccc(C(F)(F)F)cc2)nc(N2CCN(c3ncccc3Cl)C[C@H]2C)n1` [Compound 40, 6-[4-(3-Chloro-pyridin-2-yl)-2-methyl-piperazin-1-yl]-N-isobutyl-N′-(4-trifluoromethyl-phenyl)-[1,3,5]triazine-2,4-diamine (R)] stands at most 1000 nM; under `CC(C)CCNc1nc(Nc2ccc(C(F)(F)F)cc2)nc(N2CCN(c3ncccc3C(F)(F)F)C[C@@H]2C)n1` [Compound 15, N-(3-Methyl-butyl)-6-[2-methyl-4-(3-trifluoromethyl-pyridin-2-yl)-piperazin-1-yl]-N′-(4-trifluoromethyl-phenyl)-[1,3,5]triazine-2,4-diamine (S)], at most 1000 nM.
As for `C[C@@H]1CN(c2ncccc2Cl)CCN1c1nc(Cl)cc(Nc2ccc(C(F)(F)F)cc2)n1` [Compound 17, {6-Chloro-2-[4-(3-chloro-pyridin-2-yl)-2-methyl-piperazin-1-yl]-pyrimidin-4-yl}-(4-trifluoromethyl-phenyl)-amine (R)], the IC50 was at most 1000 nM.
